Experimental data as given in US9434724B2, “Quinuclidines for modulating alpha 7 activity” (priority 2014, dated 2016).
Read-outs that look alike come from different tables or passages of the source.

Assays:
CYP2C9 = CYP2C9 (Homo sapiens (Human), UniProt P11712); assay: Cytochrome P450 inhibition in human liver microsomes, CYP2C9
CYP2C19 [1] = molecular target: T1, CYP2C19 (Homo sapiens (Human), UniProt P33261); assay: Cytochrome P450 inhibition in human liver microsomes, CYP2C19
[2] = Metabolic stability assay in rat liver microsomes (RLM); format: in vitro ADME; details: 1 μM
How it was run: (§1)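 In Protocol 1, compound was 1 μM final with NADPH at 37 °C, sampled at 0–45 min. In Protocol 2, 1.5 μM compound with 0.75 mg/mL microsomes (pre-NADPH mix) in 0.1 M potassium phosphate, 1 mM EDTA, pH 7.4 was pre-incubated 10 min, then NADPH started the reaction. Both: LC-MS/MS % remaining versus time 0, half-life from single-phase exponential fit.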

[3] = Metabolic stability assay in human liver microsomes (HLM); format: in vitro ADME; details: 1 μM
How it was run: as §1

Human plasma stability = format: in vitro ADME; details: for half-life at 1 μM: pH 7.4, read-out: T1/2
How it was run: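 Compound remaining was quantified by LC-MS/MS as peak-area ratio to internal standard relative to time 0, with half-lives from single-exponential fits. Protocol 1 incubated 1 μM in heparinized human plasma (pH 7.4, 37° C) to 120 min; protocol 2 used 5 μM, pH 7.4–8.0, 37° C, n=2, to 120 min.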

[4] = molecular target: rat brain nicotinic receptor (α7 NAChR) (Rattus norvegicus (Rat), UniProt Q05941); format: binding
rat brain nicotinic receptor (α7 NAChR), sequence (Q05941 23-502 limits assumed): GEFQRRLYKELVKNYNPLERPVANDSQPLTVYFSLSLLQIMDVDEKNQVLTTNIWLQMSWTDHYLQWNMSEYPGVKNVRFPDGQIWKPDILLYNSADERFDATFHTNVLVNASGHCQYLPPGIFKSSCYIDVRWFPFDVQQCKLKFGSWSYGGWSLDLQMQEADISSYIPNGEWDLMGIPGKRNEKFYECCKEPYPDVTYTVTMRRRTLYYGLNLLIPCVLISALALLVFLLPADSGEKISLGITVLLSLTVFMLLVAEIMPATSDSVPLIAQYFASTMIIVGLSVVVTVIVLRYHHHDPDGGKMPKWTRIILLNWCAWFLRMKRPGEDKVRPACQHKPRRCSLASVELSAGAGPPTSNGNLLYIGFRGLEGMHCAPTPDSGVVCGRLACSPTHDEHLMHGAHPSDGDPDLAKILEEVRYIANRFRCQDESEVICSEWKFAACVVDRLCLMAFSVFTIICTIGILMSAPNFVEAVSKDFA

CYP3A4 [5] = molecular target: T2, CYP3A4 (Homo sapiens (Human), UniProt P08684); details: microsomes, 5 min
T2 sequence (P08684 whole entry): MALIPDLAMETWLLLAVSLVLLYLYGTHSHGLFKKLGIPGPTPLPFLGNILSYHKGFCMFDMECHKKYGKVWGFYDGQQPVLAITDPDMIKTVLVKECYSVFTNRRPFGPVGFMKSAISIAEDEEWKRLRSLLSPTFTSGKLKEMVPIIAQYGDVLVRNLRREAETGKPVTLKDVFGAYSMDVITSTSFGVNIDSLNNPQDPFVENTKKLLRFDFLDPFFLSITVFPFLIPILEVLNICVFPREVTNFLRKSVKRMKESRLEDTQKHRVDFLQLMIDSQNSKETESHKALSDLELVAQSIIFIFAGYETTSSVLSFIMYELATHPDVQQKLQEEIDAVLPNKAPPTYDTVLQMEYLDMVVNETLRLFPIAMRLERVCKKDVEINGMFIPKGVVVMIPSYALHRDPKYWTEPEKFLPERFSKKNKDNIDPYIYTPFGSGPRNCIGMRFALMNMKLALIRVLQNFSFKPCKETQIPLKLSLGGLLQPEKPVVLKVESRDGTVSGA

CYP1A2 = CYP1A2 (Homo sapiens (Human), UniProt P05177); assay: Cytochrome P450 inhibition in human liver microsomes, CYP1A2
CYP1A2, sequence (P05177 whole entry): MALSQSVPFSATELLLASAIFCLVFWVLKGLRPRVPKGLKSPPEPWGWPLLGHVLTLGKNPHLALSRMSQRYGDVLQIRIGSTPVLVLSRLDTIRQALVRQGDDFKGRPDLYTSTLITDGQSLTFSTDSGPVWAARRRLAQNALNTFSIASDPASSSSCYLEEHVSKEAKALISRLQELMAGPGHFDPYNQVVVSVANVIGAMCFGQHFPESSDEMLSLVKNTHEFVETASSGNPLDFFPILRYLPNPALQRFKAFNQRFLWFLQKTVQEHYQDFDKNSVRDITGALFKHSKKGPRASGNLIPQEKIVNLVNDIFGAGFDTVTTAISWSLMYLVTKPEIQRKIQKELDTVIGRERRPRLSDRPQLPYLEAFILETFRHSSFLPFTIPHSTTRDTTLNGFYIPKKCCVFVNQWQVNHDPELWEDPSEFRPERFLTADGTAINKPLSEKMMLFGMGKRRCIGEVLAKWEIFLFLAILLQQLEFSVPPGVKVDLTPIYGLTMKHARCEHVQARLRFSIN

CYP2C19 [6] = molecular target: T1, CYP2C19; details: microsomes
CYP2D6 = CYP2D6 (Homo sapiens (Human), UniProt P10635); assay: Cytochrome P450 inhibition in human liver microsomes, CYP2D6
CYP2D6, sequence (P10635 whole entry): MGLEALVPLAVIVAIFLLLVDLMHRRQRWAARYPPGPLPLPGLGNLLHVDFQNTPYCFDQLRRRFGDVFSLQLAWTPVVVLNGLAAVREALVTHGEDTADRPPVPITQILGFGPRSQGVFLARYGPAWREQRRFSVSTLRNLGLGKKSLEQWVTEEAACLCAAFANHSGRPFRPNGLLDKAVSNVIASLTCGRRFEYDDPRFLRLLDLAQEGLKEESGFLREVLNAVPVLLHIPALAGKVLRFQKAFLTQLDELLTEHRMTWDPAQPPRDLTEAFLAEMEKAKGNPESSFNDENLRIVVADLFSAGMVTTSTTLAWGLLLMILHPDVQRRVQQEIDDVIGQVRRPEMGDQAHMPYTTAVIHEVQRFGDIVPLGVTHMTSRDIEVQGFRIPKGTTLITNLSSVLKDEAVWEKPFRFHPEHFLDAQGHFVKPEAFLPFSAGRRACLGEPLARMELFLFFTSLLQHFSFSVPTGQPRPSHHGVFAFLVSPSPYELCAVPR

CYP3A4 [7] = molecular target: T2, CYP3A4; assay: Cytochrome P450 inhibition in human liver microsomes, CYP3A4
[8] = read-out: 2C19 IC50, Protocol 1
[9] = Protocol No. 1, rat liver microsomes
[10] = Protocol No. 1, human liver microsomes
[11] = Protocol No. 2, plasma, 5 μM, 37° C.
[12] = read-out: 3A4 IC50 (Midazolam), substrate midazolam, Protocol 1
[13] = read-out: 3A4 IC50 (Testosterone), substrate testosterone, Protocol 1
[14] = read-out: 2C19 IC50, Protocol 2
[15] = Protocol No. 2, rat liver microsomes
[16] = Protocol No. 2, human liver microsomes
[17] = Protocol No. 1, human plasma, 1 μM, 37° C.
[18] = read-out: 3A4 IC50 (Midazolam), substrate midazolam, Protocol 2

CYP2C9, sequence (P11712 whole entry): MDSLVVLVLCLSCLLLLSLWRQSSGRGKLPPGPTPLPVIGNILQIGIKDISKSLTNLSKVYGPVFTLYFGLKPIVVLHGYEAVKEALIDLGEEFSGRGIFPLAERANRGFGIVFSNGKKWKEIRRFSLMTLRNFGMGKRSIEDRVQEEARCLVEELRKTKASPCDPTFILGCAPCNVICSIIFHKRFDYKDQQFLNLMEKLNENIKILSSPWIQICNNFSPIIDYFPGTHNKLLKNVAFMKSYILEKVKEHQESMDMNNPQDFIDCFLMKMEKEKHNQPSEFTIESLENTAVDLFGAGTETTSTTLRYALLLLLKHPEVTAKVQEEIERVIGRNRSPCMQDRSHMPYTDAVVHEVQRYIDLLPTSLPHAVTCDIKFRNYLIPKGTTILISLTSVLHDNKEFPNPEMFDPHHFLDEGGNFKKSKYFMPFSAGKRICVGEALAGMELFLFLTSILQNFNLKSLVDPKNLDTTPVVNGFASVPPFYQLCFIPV
T1 sequence (P33261 whole entry): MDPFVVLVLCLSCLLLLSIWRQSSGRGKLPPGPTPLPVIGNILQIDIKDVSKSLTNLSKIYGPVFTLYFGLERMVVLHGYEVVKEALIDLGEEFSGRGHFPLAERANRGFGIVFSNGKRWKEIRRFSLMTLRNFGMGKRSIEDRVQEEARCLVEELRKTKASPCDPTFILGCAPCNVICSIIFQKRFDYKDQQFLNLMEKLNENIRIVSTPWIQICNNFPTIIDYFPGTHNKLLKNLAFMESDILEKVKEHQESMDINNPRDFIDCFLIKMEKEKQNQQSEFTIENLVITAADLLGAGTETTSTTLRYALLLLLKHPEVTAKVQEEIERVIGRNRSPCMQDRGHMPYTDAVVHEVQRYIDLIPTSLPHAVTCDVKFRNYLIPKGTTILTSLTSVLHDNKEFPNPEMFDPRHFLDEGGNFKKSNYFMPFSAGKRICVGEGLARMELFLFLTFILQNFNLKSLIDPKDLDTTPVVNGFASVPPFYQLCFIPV

## Cc1cc(O)cc2[nH]cc(C(=O)OCC34CCN(CC3)CC4)c12 [Compound 83, quinuclidin-4-ylmethyl 6-hydroxy-4-methyl-1H-indole-3-carboxylate]
CYP2C9; read-out: 2C9 IC50, Protocol 1
  IC50: > 10 µM
CYP2C19 [1]; [8]
  IC50: > 10 µM
[2]; rat, microsomes
  RLM: 14.09 mL/min/kg
[3]; human, microsomes
  HLM: 2.7 mL/min/kg
Human plasma stability; human, plasma, 2 h, 5 μM
  % Remaining @ 2 h: 71.57%
[4]
  IC50: 0.0318 µM
  Ki: 0.0279 µM
CYP3A4 [5]
  IC50: > 10 µM
CYP1A2; read-out: 1A2 IC50, Protocol 1
  IC50: > 10 µM

## Cc1cc(Br)c2c(C(=O)OCC34CCN(CC3)CC4)c[nH]c2c1 [Compound 49, quinuclidin-4-ylmethyl 4-bromo-6-methyl-1H-indole-3-carboxylate]
[2]; rat, microsomes
  RLM: 254.566 mL/min/kg
[3]; human, microsomes
  HLM: 5.963 mL/min/kg
Human plasma stability; human, plasma, 2 h, 5 μM
  % Remaining @ 2 h: 93.39%
CYP2C19 [6]; 45 min
  IC50: > 10 µM
[4]
  IC50: 0.25 µM
  Ki: 0.214 µM
CYP3A4 [5]
  IC50: > 10 µM
CYP1A2; read-out: 1A2 IC50, Protocol 1
  IC50: > 10 µM

## Cc1cc(Cl)cc2[nH]cc(C(=O)OCC34CCN(CC3)CC4)c12 [Compound 50, quinuclidin-4-ylmethyl 6-chloro-4-methyl-1H-indole-3-carboxylate]
CYP2C9; read-out: 2C9 IC50, Protocol 1
  IC50: > 10 µM
CYP2C19 [1]; [8]
  IC50: > 10 µM
[2]; rat, microsomes
  RLM: 187.575 mL/min/kg
[3]; human, microsomes
  HLM: 2.98 mL/min/kg
Human plasma stability; human, plasma
  T1/2: ∞
Human plasma stability; human, plasma, 2 h, 5 μM
  % Remaining @ 2 h: 100.92%
[4]
  IC50: 1.29 µM
  Ki: 1.1 µM
CYP3A4 [5]
  IC50: > 10 µM
CYP1A2; read-out: 1A2 IC50, Protocol 1
  IC50: > 10 µM

## Cc1cccc2c(C(=O)OCC34CCN(CC3)CC4)c[nH]c12 [Compound 19, quinuclidin-4-ylmethyl 7-methyl-1H-indole-3-carboxylate]
CYP2D6; read-out: 2D6 IC50, Protocol 2
  IC50: > 10 µM
[2]; rat, microsomes, pH 7.4
  RLM: 280.991 mL/min/kg
[3]; human, microsomes, pH 7.4
  HLM: <13.608 mL/min/kg
CYP2C19 [6]
  IC50: > 10 µM
[4]
  IC50: 0.764 µM
  Ki: 0.665 µM
CYP1A2; read-out: 1A2 IC50, Protocol 2
  IC50: > 10 µM

## O=C(OCC12CCN(CC1)CC2)c1c[nH]c2cc(Cl)cc(Br)c12 [Compound 42, quinuclidin-4-ylmethyl 4-bromo-6-chloro-1H-indole-3-carboxylate]
CYP2C9; read-out: 2C9 IC50, Protocol 1
  IC50: > 10 µM
CYP2C19 [1]; [8]
  IC50: > 10 µM
[2]; rat, microsomes
  RLM: 55.27 mL/min/kg
[3]; human, microsomes
  HLM: 12.43 mL/min/kg
Human plasma stability; human, plasma, 2 h, 5 μM
  % Remaining @ 2 h: 72.21%
CYP3A4 [5]
  IC50: > 10 µM
CYP1A2; read-out: 1A2 IC50, Protocol 1
  IC50: > 10 µM

## O=C(OCC12CCN(CC1)CC2)c1c[nH]c2cc(O)cc(Br)c12 [Compound 53, quinuclidin-4-ylmethyl 4-bromo-6-hydroxy-1H-indole-3-carboxylate]
CYP2C9; read-out: 2C9 IC50, Protocol 1
  IC50: > 10 µM
CYP2D6; read-out: 2D6 IC50, Protocol 1
  IC50: > 10 µM
CYP2C19 [1]; [8]
  IC50: > 10 µM
[2]; [9]
  RLM: 29.9085 mL/min/kg
[3]; [10]
  HLM: 8.304 mL/min/kg
Human plasma stability; [11]
  % Remaining @ 2 h: 95.5%
[4]
  IC50: 0.0536 µM
  Ki: 0.046 µM
CYP1A2; read-out: 1A2 IC50, Protocol 1
  IC50: > 10 µM
CYP3A4 [7]; [12]
  IC50: > 10 µM
CYP3A4 [7]; [13]
  IC50: > 10 µM

## O=C(OCC12CCN(CC1)CC2)c1c[nH]c2cc(F)cc(Br)c12 [Compound 41, quinuclidin-4-ylmethyl 4-bromo-6-fluoro-1H-indole-3-carboxylate]
CYP2C9; read-out: 2C9 IC50, Protocol 1
  IC50: > 10 µM
CYP2C19 [1]; [8]
  IC50: > 10 µM
[2]; rat, microsomes
  RLM: 86.59 mL/min/kg
[3]; human, microsomes
  HLM: 7.55 mL/min/kg
Human plasma stability; human, plasma
  T1/2: ∞
Human plasma stability; human, plasma, 2 h, 5 μM
  % Remaining @ 2 h: 120.27%
[4]
  IC50: 0.76 µM
  Ki: 0.655 µM
CYP3A4 [5]
  IC50: > 10 µM
CYP1A2; read-out: 1A2 IC50, Protocol 1
  IC50: > 10 µM

## COc1cc(F)c2c(C(=O)OCC34CCN(CC3)CC4)c[nH]c2c1.Cl [Compound 33, Quinuclidin-4-ylmethyl 4-fluoro-6-methoxy-1H-indole-3-carboxylate hydrochloride]
CYP2C9; read-out: 2C9 IC50, Protocol 2
  IC50: > 10 µM
CYP2D6; read-out: 2D6 IC50, Protocol 2
  IC50: > 10 µM
CYP2C19 [1]; [14]
  IC50: > 10 µM
[2]; [15]
  RLM: 47.7 mL/min/kg
[3]; [16]
  HLM: <13.608 mL/min/kg
Human plasma stability; [17]
  half-life at 1 μM: 17.6 min
[4]
  IC50: 0.0496 µM
  Ki: 0.0432 µM
CYP1A2; read-out: 1A2 IC50, Protocol 2
  IC50: > 10 µM
CYP3A4 [7]; [18]
  IC50: > 10 µM

## COc1cc(Br)c2c(C(=O)OCC34CCN(CC3)CC4)c[nH]c2c1 [Compound 48, quinuclidin-4-ylmethyl 4-bromo-6-methoxy-1H-indole-3-carboxylate]
CYP2D6; read-out: 2D6 IC50, Protocol 1
  IC50: > 10 µM
[2]; rat, microsomes
  RLM: 69.1781 mL/min/kg
[3]; human, microsomes
  HLM: 7.539 mL/min/kg
Human plasma stability; human, plasma, 2 h, 5 μM
  % Remaining @ 2 h: 101.03%
CYP2C19 [6]; 45 min
  IC50: > 10 µM
[4]
  IC50: 0.42 µM
  Ki: 0.36 µM
CYP1A2; read-out: 1A2 IC50, Protocol 1
  IC50: > 10 µM
CYP3A4 [7]; [12]
  IC50: > 10 µM
CYP3A4 [7]; [13]
  IC50: > 10 µM

## COc1cc2[nH]cc(C(=O)OCC34CCN(CC3)CC4)c2cc1F.Cl [Compound 32, Quinuclidin-4-ylmethyl 5-fluoro-6-methoxy-1H-indole-3-carboxylate hydrochloride]
CYP2C9; read-out: 2C9 IC50, Protocol 2
  IC50: > 10 µM
CYP2D6; read-out: 2D6 IC50, Protocol 2
  IC50: > 10 µM
CYP2C19 [1]; [14]
  IC50: > 10 µM
[2]; [15]
  RLM: 85.5 mL/min/kg
[3]; [16]
  HLM: <13.608 mL/min/kg
Human plasma stability; [17]
  half-life at 1 μM: > 120 min
[4]
  IC50: 0.306 µM
  Ki: 0.267 µM
CYP1A2; read-out: 1A2 IC50, Protocol 2
  IC50: > 10 µM
CYP3A4 [7]; [18]
  IC50: > 10 µM

## COc1cc2c(C(=O)OCC34CCN(CC3)CC4)c[nH]c2cc1F [Compound 57, quinuclidin-4-ylmethyl 6-fluoro-5-methoxy-1H-indole-3-carboxylate]
CYP2C9; read-out: 2C9 IC50, Protocol 1
  IC50: > 10 µM
CYP2D6; read-out: 2D6 IC50, Protocol 1
  IC50: > 10 µM
CYP2C19 [1]; [8]
  IC50: > 10 µM
[2]; [9]
  RLM: 153.227 mL/min/kg
[3]; [10]
  HLM: 0 mL/min/kg
Human plasma stability; [11]
  % Remaining @ 2 h: 76.33%
[4]
  IC50: 0.257 µM
  Ki: 0.221 µM
CYP1A2; read-out: 1A2 IC50, Protocol 1
  IC50: > 10 µM
CYP3A4 [7]; [12]
  IC50: > 10 µM
CYP3A4 [7]; [13]
  IC50: > 10 µM

## COc1cc(C)c2c(C(=O)OCC34CCN(CC3)CC4)c[nH]c2c1 [Compound 37, quinuclidin-4-ylmethyl 6-methoxy-4-methyl-1H-indole-3-carboxylate]
CYP2C9; read-out: 2C9 IC50, Protocol 1
  IC50: > 10 µM
CYP2C19 [1]; [8]
  IC50: > 10 µM
[2]; rat, microsomes
  RLM: 33.07 mL/min/kg
[3]; human, microsomes
  HLM: 20.18 mL/min/kg
Human plasma stability; human, plasma
  T1/2: ∞
Human plasma stability; human, plasma, 2 h, 5 μM
  % Remaining @ 2 h: 108.49%
CYP3A4 [5]
  IC50: > 10 µM
CYP1A2; read-out: 1A2 IC50, Protocol 1
  IC50: > 10 µM

## Cl.O=C(OCC12CCN(CC1)CC2)c1c[nH]c2cc3c(cc12)OCCO3 [Compound 30, Quinuclidin-4-ylmethyl 2,3-dihydro-6H-[1,4]dioxino[2,3-f]indole-8-carboxylate hydrochloride]
CYP2C9; read-out: 2C9 IC50, Protocol 2
  IC50: > 10 µM
CYP2D6; read-out: 2D6 IC50, Protocol 2
  IC50: > 10 µM
CYP2C19 [1]; [14]
  IC50: > 10 µM
[2]; [15]
  RLM: 55.98 mL/min/kg
[3]; [16]
  HLM: <13.608 mL/min/kg
Human plasma stability; [17]
  % Remaining @ 2 h: 10%
  half-life at 1 μM: 34.7 min
[4]
  IC50: 0.0925 µM
  Ki: 0.0811 µM
CYP1A2; read-out: 1A2 IC50, Protocol 2
  IC50: > 10 µM
CYP3A4 [7]; [18]
  IC50: > 10 µM
